From US20240173320A1, “METHODS OF USING EHMT2 INHIBITORS IN IMMUNOTHERAPIES” (Epizyme, Inc., priority 2017, published 2024)
“Also recorded” adds a separate entry of the source.

How the values were obtained:
[1] = system: naive CD4 T cells isolated from human PBMCs; assay: T regulatory (Treg) cell polarization of naive CD4 T cells, flow cytometry for CD25 and Foxp3; format: cell-based; conditions: for Treg polarization: naive CD4 T cells from healthy donor PBMCs, six days, Foxp3 and CD25 by flow cytometry (Example 3, FIGS. 3, 4A-4B)
Protocol: (§1) To evaluate the effects of Compounds on T regulatory (Treg) and Th17 cell polarization, naive CD4 T cells were isolated from human peripheral blood mononuclear cells (PBMCs) using magnetic bead separation and cultured with or without compound in the presence of Treg or Th17 polarizing cytokines. For Treg polarization, naive cells were cultured for five days with anti-CD3, anti-CD28, TL-2 and TGFβ. After five days, the cells were then evaluated for CD25 and Foxp3 expression by flow cytometry. For Th17 polarization, naive cells were cultured for 10-11 days with anti-CD3, anti-CD28, […], IL-6, IL-23, TGFβ, anti-IFNγ antibody and anti-IL-4 antibody. After 10-11 days cells were stimulated and then evaluated for IL-17 and IFNγ by flow cytometry.
(§2) To evaluate the effects of Compound 571 on Treg cell polarization, naive cells were isolated from human peripheral blood mononuclear cells (PBMCs), stimulated with coated CD3 antibody and soluble CD28 antibody, and cultured with or without compound in the presence of Treg polarizing cytokines for five days, as described in [0601]. Compound was replenished at either day three or day four.
(§3) Naive CD4 T cells were isolated from healthy donor PBMCs using magnetic bead separation and were incubated for six days with cytokine cocktail to promote polarization to T regulatory cells, as described in [0601]. Cells were simultaneously treated with various concentrations of G9a inhibitors, with compound replenishment occurring at either day three or day four. Polarization to T regulatory cells was assessed by flow cytometry using Foxp3 and CD25. Methyl mark (H3K9me2) was also assessed by flow cytometry.

H3K9me2 [2] = assay: Methyl mark (H3K9me2) by flow cytometry under Th17 polarizing conditions; format: cell-based, human; conditions: naive CD4 T cells from healthy donor PBMCs, flow cytometry (Example 4, FIGS. 5, 6A-6B)
Protocol: as §3, with “incubated” for “incubated for six days”, “Th17” for “T regulatory”, “at” for “at either”, “or” for “or day”, “IL-17A” for “Foxp3”, “IFNy.” for “CD25.”

H3K9me2 [3] = assay: Methyl mark (H3K9me2) by flow cytometry under Treg polarizing conditions; format: cell-based, human; conditions: naive CD4 T cells from healthy donor PBMCs, six days, flow cytometry (Example 3, FIGS. 3, 4A-4B)
Protocol: as §3

[4] = system: naive CD4 T cells isolated from human PBMCs; assay: Th17 cell polarization of naive CD4 T cells, flow cytometry for IL-17 and IFNγ; format: cell-based; conditions: for percentage of polarized Th17 cells: naive cells from human PBMCs, Th17 polarizing cytokines, 11 days, IL-17 and IFNγ by flow cytometry (Example 2, FIGS. 1B, 2)
Protocol: as §1
as §2, with “of Compounds 205 and” for “of Compound”, “on Th17” for “on Treg”, “of Th17” for “of Treg”, “for 11 days” for “for five days,”, “four. After 11 days of treatment, cells were stimulated with PMA, ionomycin, brefeldin A and monensin, and then evaluated for IL-17 and IFNγ by flow cytometry.” for “four.”
as §3, with “incubated” for “incubated for six days”, “Th17” for “T regulatory”, “at” for “at either”, “or” for “or day”, “IL-17A” for “Foxp3”, “IFNy.” for “CD25.”

SMILES	Treg polarization [1]	H3K9me2 (methyl mark) under Th17 polarization (H3K9me2 [2])	H3K9me2 (methyl mark) under Treg polarization (H3K9me2 [3])	percentage of polarized Th17 cells [4]	polarized Treg cells ([1]; naive cells from human PBMCs, Treg polarizing cytokines, five days (Example 2, FIG. 1A))	Th17 polarization ([4]; naive CD4 T cells from healthy donor PBMCs, IL-17A and IFNγ by flow cytometry (Example 4, FIG. 5))
CNc1cc(C)nc(Nc2ccc(OC)c(OCCCN3CCCC3)c2)n1 [Compound 205]	increased	decreased	decreased	dose-dependent increase		
CNC1=Nc2cc(C#CCN3CCCCC3)c(OC)cc2C12CCC2 [Compound A75]	increased	decreased	decreased			
CCN1CC[C@@H](COc2cc(Nc3nc(C)cc(NC)n3)ccc2OC)C1 [Compound 571]				dose-dependent increase	anin polarized Treg cells	
CNCc1cnn(-c2cc(Nc3nc(C)cc(NC)n3)ccc2OC)c1 [Compound D6]	dose-dependent increase; also recorded: increased	dose-dependent decrease; also recorded: decreased	dose-dependent decrease; also recorded: decreased			dose-dependent increase
